According to PubChem BioAssay AID248 (DTP/NCI, 2004):
Values joined by “and” are separate entries in the source; they are usually repeats but may differ in a detail not shown here. Identical values can stand only once. Toxic doses and inconclusive results are not listed. Cut-off read from the data, not from the text of the source: active = T/C of 150% or more; inactive = T/C below 125%.

Tested on: L1210 leukemia ip in BDF1 mice, survival T/C
Experiment: NCI In Vivo Anticancer Drug Screen. Data for tumor model L1210 Leukemia (intraperitoneal) in B6D2F1 (BDF1) mice
Settings: endpoint: mean survival time, higher = longer survival
Outline: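 Transplantable tumor model; survival measured in treated vs vehicle control mice. Value = treated/control.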

[1] = dose: 100.0 mg/kg/injection, schedule: Q01DX001 (ip), vehicle: carboxymethylcellulose (CMC)
[2] = dose: 200.0 mg/kg/injection, schedule: Q01DX001 (ip), vehicle: carboxymethylcellulose (CMC)
[3] = dose: 400.0 mg/kg/injection, schedule: Q01DX001 (ip), vehicle: carboxymethylcellulose (CMC)
[4] = dose: 100.0 mg/kg/injection, schedule: Q01DX001 (ip), vehicle: saline with Tween-80
[5] = dose: 100.0 mg/kg/injection, schedule: Q04DX002 (ip), vehicle: saline with Tween-80
[6] = dose: 100.0 mg/kg/injection, schedule: Q04DX003 (ip), vehicle: saline with Tween-80
[7] = dose: 200.0 mg/kg/injection, schedule: Q01DX001 (ip), vehicle: saline with Tween-80
[8] = dose: 200.0 mg/kg/injection, schedule: Q04DX002 (ip), vehicle: saline with Tween-80
[9] = dose: 400.0 mg/kg/injection, schedule: Q01DX001 (ip), vehicle: saline with Tween-80
[10] = dose: 400.0 mg/kg/injection, schedule: Q04DX002 (ip), vehicle: saline with Tween-80
[11] = dose: 100.0 mg/kg/injection, schedule: Q04DX003 (ip), vehicle: saline
[12] = dose: 200.0 mg/kg/injection, schedule: Q04DX003 (ip), vehicle: saline
[13] = dose: 12.5 mg/kg/injection, schedule: Q04DX002 (ip), vehicle: other
[14] = dose: 25.0 mg/kg/injection, schedule: Q04DX002 (ip), vehicle: other

Measured: T/C

N#CCCNC(Cc1ccc(O)cc1)C(=O)O (configuration not stated)
inactive: dose: 12.5 mg/kg/injection, schedule: Q04DX003 (ip), vehicle: Klucel (hydroxypropylcellulose) (HPC) 104 % of control | dose: 25.0 mg/kg/injection, schedule: Q01DX009 (ip), vehicle: Klucel (hydroxypropylcellulose) (HPC) 104 % of control | dose: 25.0 mg/kg/injection, schedule: Q04DX003 (ip), vehicle: Klucel (hydroxypropylcellulose) (HPC) 98 % of control | dose: 50.0 mg/kg/injection, schedule: Q01DX009 (ip), vehicle: Klucel (hydroxypropylcellulose) (HPC) 95 % of control | dose: 50.0 mg/kg/injection, schedule: Q04DX003 (ip), vehicle: Klucel (hydroxypropylcellulose) (HPC) 104 % of control | dose: 100.0 mg/kg/injection, schedule: Q01DX009 (ip), vehicle: Klucel (hydroxypropylcellulose) (HPC) 106 % of control | dose: 100.0 mg/kg/injection, schedule: Q04DX003 (ip), vehicle: Klucel (hydroxypropylcellulose) (HPC) 100 % of control

CCCCCCCCCCCCCC(=O)N(CC)CC
inactive: [1] 104 % of control | dose: 100.0 mg/kg/injection, schedule: Q01DX009 (ip), vehicle: carboxymethylcellulose (CMC) 95 % of control and 100 % of control | dose: 100.0 mg/kg/injection, schedule: Q04DX003 (ip), vehicle: carboxymethylcellulose (CMC) 98 % of control | [2] 94 % of control | dose: 200.0 mg/kg/injection, schedule: Q01DX009 (ip), vehicle: carboxymethylcellulose (CMC) 101 % of control and 107 % of control | dose: 200.0 mg/kg/injection, schedule: Q04DX003 (ip), vehicle: carboxymethylcellulose (CMC) 92 % of control | [3] 96 % of control | dose: 400.0 mg/kg/injection, schedule: Q04DX003 (ip), vehicle: carboxymethylcellulose (CMC) 103 % of control

CC(=N/N=C(N)N)/C(C)=N/N=C(N)N
inactive: dose: 15.0 mg/kg/injection, schedule: Q01DX Z (ip), vehicle: saline 98 % of control | dose: 30.0 mg/kg/injection, schedule: Q01DX Z (ip), vehicle: saline 97 % of control | dose: 60.0 mg/kg/injection, schedule: Q01DX005 (oral), vehicle: saline 96 % of control | dose: 60.0 mg/kg/injection, schedule: Q01DX Z (ip), vehicle: saline 108 % of control | dose: 120.0 mg/kg/injection, schedule: Q01DX Z (ip), vehicle: saline 98 % of control

COc1cccc(C(O)c2cnc(C)n2Cc2ccccc2)c1 (configuration not stated)
inactive: [4] 94 % of control | dose: 100.0 mg/kg/injection, schedule: Q01DX009 (ip), vehicle: saline with Tween-80 93 % of control and 107 % of control | [5] 97 % of control and 100 % of control | [6] 101 % of control | [7] 100 % of control | dose: 200.0 mg/kg/injection, schedule: Q01DX009 (ip), vehicle: saline with Tween-80 98 % of control and 99 % of control | [8] 102 % of control and 107 % of control | dose: 200.0 mg/kg/injection, schedule: Q04DX003 (ip), vehicle: saline with Tween-80 93 % of control | [9] 103 % of control | dose: 400.0 mg/kg/injection, schedule: Q01DX009 (ip), vehicle: saline with Tween-80 98 % of control and 108 % of control | [10] 105 % of control and 88 % of control | dose: 400.0 mg/kg/injection, schedule: Q04DX003 (ip), vehicle: saline with Tween-80 98 % of control

S=C=Nc1ccc(Cl)cc1
inactive: dose: 25.0 mg/kg/injection, schedule: Q04DX003 (ip), vehicle: saline with Tween-80 107 % of control | dose: 50.0 mg/kg/injection, schedule: Q04DX003 (ip), vehicle: saline with Tween-80 96 % of control | [6] 95 % of control and 101 % of control

O=c1[nH]cnc2nccnc12
inactive: dose: 25.0 mg/kg/injection, schedule: Q04DX003 (ip), vehicle: saline 100 % of control | dose: 50.0 mg/kg/injection, schedule: Q04DX003 (ip), vehicle: saline 101 % of control | [11] 88 % of control | [12] 90 % of control

O=Cc1ccc([N+](=O)[O-])o1
inactive: dose: 10.0 mg/kg/injection, schedule: Q01DX001 (ip), vehicle: saline 94 % of control | [13] 102 % of control | dose: 20.0 mg/kg/injection, schedule: Q01DX001 (ip), vehicle: saline 100 % of control | [14] 97 % of control | dose: 40.0 mg/kg/injection, schedule: Q01DX001 (ip), vehicle: saline 94 % of control

C=C1C(=O)OCC2C(C(=O)O)=CC3C(C)C(C)=CC123 (configuration not stated)
inactive: dose: 20.0 mg/kg/injection, schedule: Q01DX009 (ip), vehicle: saline with Tween-80 108 % of control | dose: 40.0 mg/kg/injection, schedule: Q01DX009 (ip), vehicle: saline with Tween-80 111 % of control

CN(C)OC(=O)Nc1cccc2ccccc12
inactive: dose: 100.0 mg/kg/injection, schedule: Q04DX002 (ip), vehicle: DMSO 96 % of control | dose: 200.0 mg/kg/injection, schedule: Q04DX002 (ip), vehicle: DMSO 108 % of control | dose: 400.0 mg/kg/injection, schedule: Q04DX002 (ip), vehicle: DMSO 101 % of control

Cc1ccc(NC(=O)Oc2ccc(F)cc2)cc1NC(=O)Oc1ccc(F)cc1
inactive: dose: 25.0 mg/kg/injection, schedule: Q01DX009 (ip), vehicle: other 95 % of control | dose: 50.0 mg/kg/injection, schedule: Q01DX009 (ip), vehicle: other 95 % of control | dose: 100.0 mg/kg/injection, schedule: Q01DX009 (ip), vehicle: other 94 % of control and 100 % of control

CNC/C(Cl)=N/S(=O)(=O)c1ccc(C)cc1
inactive: [13] 106 % of control | [14] 98 % of control | dose: 50.0 mg/kg/injection, schedule: Q04DX002 (ip), vehicle: other 95 % of control | dose: 50.0 mg/kg/injection, schedule: Q04DX002 (ip), vehicle: saline with Tween-80 96 % of control | [5] 99 % of control | [8] 96 % of control | [10] 108 % of control

CCCCCCCC/C=C\CCCCCCCCNP(=O)(OCCCCCCCCCCCC)OCCCCCCCCCCCC
inactive: [5] 101 % of control | [10] 86 % of control

COc1ccccc1NC(=O)CSC(N)=O
inactive: dose: 75.0 mg/kg/injection, schedule: Q## X000 (ip), vehicle: carboxymethylcellulose (CMC) 100 % of control | dose: 125.0 mg/kg/injection, schedule: Q## X000 (ip), vehicle: carboxymethylcellulose (CMC) 105 % of control | dose: 175.0 mg/kg/injection, schedule: Q## X000 (ip), vehicle: carboxymethylcellulose (CMC) 100 % of control | dose: 200.0 mg/kg/injection, schedule: Q01DX Z (ip), vehicle: carboxymethylcellulose (CMC) 104 % of control | dose: 400.0 mg/kg/injection, schedule: Q01DX Z (ip), vehicle: carboxymethylcellulose (CMC) 105 % of control

CCOC(=O)CC(C)(C)C1CC1
inactive: dose: 50.0 mg/kg/injection, schedule: Q01DX001 (ip), vehicle: saline 91 % of control | dose: 100.0 mg/kg/injection, schedule: Q01DX001 (ip), vehicle: saline 96 % of control | dose: 200.0 mg/kg/injection, schedule: Q01DX001 (ip), vehicle: saline 96 % of control | dose: 400.0 mg/kg/injection, schedule: Q01DX001 (ip), vehicle: saline 94 % of control

CCOCCOCCOCCOc1ccc2c(c1)OCO2
inactive: dose: 100.0 mg/kg/injection, schedule: Q04DX002 (ip), vehicle: saline 95 % of control | dose: 200.0 mg/kg/injection, schedule: Q04DX002 (ip), vehicle: saline 88 % of control | dose: 400.0 mg/kg/injection, schedule: Q04DX002 (ip), vehicle: saline 107 % of control

COC(O)C(O)C(O)C(O)CO (configuration not stated) (tested in a mixture with another compound)
inactive: [4] 90 % of control | [7] 97 % of control | [9] 93 % of control

COc1ccc2nc3cc(Cl)ccc3c(NCCO)c2c1
inactive: dose: 75.0 mg/kg/injection, schedule: Q01DX001 (ip), vehicle: Klucel (hydroxypropylcellulose) (HPC) 100 % of control | [1] 100 % of control | [11] 96 % of control | dose: 150.0 mg/kg/injection, schedule: Q01DX001 (ip), vehicle: Klucel (hydroxypropylcellulose) (HPC) 96 % of control | [2] 100 % of control | [12] 96 % of control | dose: 300.0 mg/kg/injection, schedule: Q01DX001 (ip), vehicle: Klucel (hydroxypropylcellulose) (HPC) 96 % of control | [3] 108 % of control | dose: 400.0 mg/kg/injection, schedule: Q04DX003 (ip), vehicle: saline 89 % of control

O=C(Nc1ccc(C2=NCCN2)cc1)c1ccc([N+](=O)[O-])c(C(=O)Nc2ccc(C3=NCCN3)cc2)c1
inactive: dose: 10.0 mg/kg/injection, schedule: Q01DX Z (ip), vehicle: carboxymethylcellulose (CMC) 108 % of control | dose: 19.0 mg/kg/injection, schedule: Q01DX Z (ip), vehicle: carboxymethylcellulose (CMC) 108 % of control
